Our source for the IC50 and EC50 values is patent publication US12162848B2, “Inhibitors of protein tyrosine phosphatase, compositions, and methods of use” (BRISTOL-MYERS SQUIBB COMPANY, priority 2022, dated 2024).

Assay [1] concerns the target T1, PTPN2 enzyme (Homo sapiens, UniProt P17706).
T1 sequence (P17706 1-415): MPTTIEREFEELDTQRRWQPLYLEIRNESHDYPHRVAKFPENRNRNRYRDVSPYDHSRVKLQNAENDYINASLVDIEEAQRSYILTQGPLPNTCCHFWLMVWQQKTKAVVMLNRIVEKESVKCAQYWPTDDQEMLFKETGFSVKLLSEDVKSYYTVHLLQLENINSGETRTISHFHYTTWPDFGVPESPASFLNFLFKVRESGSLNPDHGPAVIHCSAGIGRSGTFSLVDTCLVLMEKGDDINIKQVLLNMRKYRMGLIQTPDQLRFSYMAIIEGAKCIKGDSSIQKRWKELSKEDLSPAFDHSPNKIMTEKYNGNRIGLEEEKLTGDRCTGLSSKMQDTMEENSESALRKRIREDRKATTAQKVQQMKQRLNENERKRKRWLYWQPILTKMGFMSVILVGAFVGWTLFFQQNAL
Nature of the assay: PhosphoSens PTPN2 biochemical assay. The following applies: substrate AQT0264 20 μM, room temperature; read-out: PTPN2 BCHEM IC50. Put shortly: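 PhosphoSens fluorescence format with 20 μM final AQT0264 substrate and […] in 50 mM HEPES pH 7.5, 500 μM EGTA, […], 0.01% Brij-35, 1% glycerol, 1 mM DTT, 0.2 mg/mL BSA. Compounds in 3-fold dilution series; progress curves read (ex 360/em 480 nm) every 71 s for 1 h at room temperature.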

For assay [2], the system named is phosphorylated STAT1 protein levels in B16-F10 cells. The experiment in a line: Phospho-STAT1 (Tyr701) HTRF assay in IFN-gamma treated B16-F10 cells. The class given is cell-based. The following applies: mouse IFN-gamma 100 ng/mL, 1 hour, read-out: pSTAT1 HTRF B16 EC50. The gist of the method:
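Mouse B16-F10 cells, 10,000/well, pretreated 1 h with compound (0.15% DMSO), then stimulated with mouse IFN-gamma at 100 ng/mL final for 1 h at 37 C. Phospho-STAT1 (Tyr701) measured by HTRF.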
(Time-resolved FRET reads energy transfer from a long-lived donor to a nearby acceptor.)

The test system of assay [3] is B16-F10 cells. The experiment in a line: Cell proliferation assay (CellTiter-Glo) in IFN-gamma treated B16-F10 cells. Format: cell-based. The following applies: 120 h, mouse IFN-gamma 10 ng/mL, read-out: PTPN2 Prolif 5d B16F10 EC50. (In general: In ATP-based viability assays light output follows the ATP content of the culture.)

As for `CC(=O)N1CCC[C@H](NCc2cc(O)c(N3CC(=O)NS3(=O)=O)c(F)c2)C1` [EXAMPLE 71, 5-[4-[[[(3S)-1-acetyl-3-piperidyl]amino]methyl]-2-fluoro-6-hydroxy-phenyl]-1,1-dioxo-1,2,5-thiadiazolidin-3-one], the IC50 in assay [1] is 25 nM. For the same compound, the EC50 came out at 2910 nM in assay [2] and 1890 nM in assay [3].

As to `COC1CCN(Cc2cc(O)c(N3CC(=O)NS3(=O)=O)c(F)c2)CC1` [EXAMPLE 53, 5-[2-fluoro-6-hydroxy-4-[(4-methoxy-1-piperidyl)methyl]phenyl]-1,1-dioxo-1,2,5-thiadiazolidin-3-one], the IC50 in assay [1] amounted to 102 nM. The EC50 stood at 3200 nM in assay [2] and 2980 nM in assay [3].

With `O=C1CN(c2c(O)cc(-c3ccncc3)cc2F)S(=O)(=O)N1` [EXAMPLE 9, 5-(2-fluoro-6-hydroxy-4-(pyridin-4-yl)phenyl)-1,2,5-thiadiazolidin-3-one 1,1-dioxide], the IC50 in assay [1] was 322 nM. Besides, the concentration giving a half-maximal response (EC50) in assay [2] and in assay [3] was at least 15000 nM throughout.

As usually defined, the IC50 is the concentration that gives 50% inhibition. Broadly, the EC50 is the concentration that produces a half-maximal response.
